The numbers were not newly measured in patent US8986529B2, “Isotachophoresis having interacting anionic and cationic shock waves” (The Board of Trustees of the Leland Stanford Junior …, priority 2010, dated 2015), which cites them from elsewhere.

For orientation: pKa means the pH at which an ionisable group is half protonated.

For data set [1] the following is noted: for pKa: text b64: pKa,TE− of Tricine, pKa,LE+ of Imidazole, pKa,TE+ of Arginine.
[2] abbreviates: Table 1, fully-ionized (absolute) mobility of the +1 cation, cationic LE+/TE+ candidates for focusing to separation mode.
[3] abbreviates: Table 2, absolute mobility of the cation, cationic LE+/TE+ candidates for bidirectional cascade ITP.
Setting [4] is: Table 2, acid dissociation constant of the cation, bidirectional cascade ITP buffers.
[5] abbreviates: Table 1, cationic LE+/TE+ candidates for focusing to separation mode.

Like-named read-outs stand apart in the source and are kept apart here.

Consider `Cc1ccccn1` [2-methyl pyridine], for which the “μ+1” value is reported as 40.1 ×10^−9 m^2V^−1s^−1 under setting [2] and 40.1 ×10^−9 m^2V^−1s^−1 under setting [3]. In addition, in data set [1] (setting [4]), the “pKa,+1” value is 6.2.
Regarding `Cc1cccnc1` [3-methyl pyridine], the “μ+1” value under setting [2] was 40.1 ×10^−9 m^2V^−1s^−1. For the same molecule, in data set [1] (setting [5]), the “pKa,+1” value was 5.5.
As for `Cc1ccncc1` [4-methyl pyridine], the “μ+1” value under setting [3] is reported as 40.1 ×10^−9 m^2V^−1s^−1.
For the molecule `CC(N)(CO)CO` [Amediol], under setting [2], the “μ+1” value is listed as 33.5 ×10^−9 m^2V^−1s^−1.
Turning to `N=C(N)NCCC[C@H](N)C(=O)O` [Arginine], the “μ+1” value under setting [2] is given as 26.9 ×10^−9 m^2V^−1s^−1. Also, in data set [1] (setting [5]), the “pKa,+1” value is 8.92. The pKa in data set [1] is given as 8.92.
With `OCCN(CCO)C(CO)(CO)CO` [Bistris], the “μ+1” value under setting [3] is 26 ×10^−9 m^2V^−1s^−1.
For `c1c[nH]cn1` [Imidazole], the “μ+1” value is on record as 52 ×10^−9 m^2V^−1s^−1 under setting [2] and 52 ×10^−9 m^2V^−1s^−1 under setting [3]. Moreover, the “pKa,+1” value in data set [1] (setting [5]) and in data set [1] (setting [4]) was 7.15 throughout. Further, the pKa in data set [1] is reported as 7.15.
For `c1ccncc1` [Pyridine], the “μ+1” value under setting [3] is 30 ×10^−9 m^2V^−1s^−1.
Turning to `NC(CO)(CO)CO` [Tris], the “μ+1” value under setting [2] is 29.5 ×10^−9 m^2V^−1s^−1 and the “μ+1” value under setting [3] is reported as 29.5 ×10^−9 m^2V^−1s^−1.
